Molecules are shown by their SMILES.

The text below walks through data of publication PMC7408547, “Bivalent Inhibitor with Selectivity for Trimeric MMP-9 Amplifies Neutrophil Chemotaxis and Enables Functional Studies on MMP-9 Proteoforms” (Cells, 2020).

The target in data set [1] is T1, recombinant human MMP-9 trimers (Homo sapiens, UniProt P14780).
T1 construct: made in house; host or cells: Sf9 insect cells
Briefly: Gelatin degradation assay, recombinant MMP-9 trimers. The format is biochemical. How it is done: (§1) Compounds 5 and 7 were synthesized as previously reported. Full-length human proMMP-9 was produced by recombinant expression in Sf9 insect cells and purified by gelatin-Sepharose chromatography as previously described. Stable full-length proMMP-9 monomers and trimers were separated by glycerol gradient ultracentrifugation as previously described. ProMMP-9 mixture and the separated monomers and trimers were activated by incubation with the catalytic domain of MMP-3 (cat. No. 444217, Merck Millipore, Darmstadt, Germany) as previously described. Activation of proMMP-9 was confirmed by a band shift of ±10 kDa, corresponding to the removal of the auto-inhibitory propeptide domain and by detection of gelatinolytic activity with a previously described gelatin degradation assay. MMP-9 monomers and trimers purified from human neutrophils were purchased (Cat. No. 444,231 and 444232, Sigma-Aldrich, St. Louis, MO, USA). Examples of sample purities and activations can be found in Supplementary Figure S1. Recombinant human proMMP-2 (CHO cell-derived), proMMP-3 (NS0 cell-derived), proMMP-7 (NS0 cell-derived) and proMMP-8 (NS0 cell-derived) were purchased from R & D systems (Minneapolis, MN, USA), dissolved in assay buffer (150 mM NaCl, 5 mM CaCl2, 0.01% Tween-20, 50 mM Tris, pH 7.4) to a concentration of 100 µg/mL and activated by incubation with 1 mM p-aminophenylmercuric acetate for, respectively, 1h, 6h, 2h and 1h. Activation of MMPs was confirmed by a band shift of approximately 10 kDa, corresponding to the removal of the propeptide domain. MMP-14/MT1-MMP (NS0 cell-derived) was also purchased from R & D systems (Minneapolis, MN, USA) and activated by incubation with recombinant human furin (cat. No. 1503-SE-010, R & D systems, Minneapolis, MO, USA) in activation buffer (50 mM Tris, 1 mM CaCl2, 0.5% Brij-35, pH 9) for 1.5 h and activity was tested in assay buffer (50 mM Tris, 3 mM CaCl2, 1 µM ZnCl2, pH 8.5). Active human neutrophil elastase (NE) was purchased from Abcam (Cambridge, UK) and for activity assays of NE the assay buffer was replaced by 200 mM Tris, pH 8.8. ADAM17/TACE (Sf 21 (baculovirus)-derived, R & D systems, Minneapolis, MO, USA) was diluted and evaluated in 25 mM Tris, 2.5 μM ZnCl2, 0.005% Brij-35, pH 9.0. All stocks of the compounds were evaluated for the presence of endotoxin using the EndoZyme II assay (Hyglos bioMérieux, Bernried am Starnberger See, Germany). Endotoxin levels in all concentrated stocks (2.5 mg/mL) were below the accepted limit of 0.5 EU/mL.
To determine the inhibition of gelatinolytic activity, we used a previously optimized gelatin degradation assay. Activated MMP-9, activated MMP-2, neutrophil elastase or supernatants of stimulated neutrophils, were incubated with different concentrations of inhibitors and incubated for 30 min at 37 °C. Next, dye-quenched gelatin (DQ™-gelatin, Invitrogen, Carlsbad, CA, USA) was added at a final concentration of 2.5 µg/mL and the increase in fluorescence over time was measured with the CLARIOstar microplate reader (BMG Labtech, Ortenberg, Germany). For other MMPs, the OmniMMP substrate peptide (Mca-PLGL-Dpa-AR-NH2, cat. no. BML-P126-0001, Enzo Life Sciences, Farmingdale, NY, USA) was used at a final concentration of 2.5 µg/mL. For ADAM17 the fluorogenic peptide Mca-PLAQAV-Dpa-RSSSR-NH2 (ES003, R & D systems, Minneapolis, MO, USA) and for neutrophil elastase the fluorogenic substrate MeOSuc-AAPV-AMC (cat. no. 324740, Merck Millipore, Darmstadt, Germany) were used. Proteolytic activity was determined by linear regression of the fluorescence curve and the percentage inhibition was calculated through comparison with the positive control (no inhibitors). When testing supernatants from human neutrophils, the assay was performed in the presence of 20 µM neutrophil elastase inhibitor (Elastase Inhibitor IV, Calbiochem, Darmstadt, Germany).

In another data set the target is T2, TACE/ADAM17 (Homo sapiens, UniProt P78536).
T2 construct: purchased R & D systems; host or cells: Sf 21 (baculovirus)
T2 sequence (P78536 215-824): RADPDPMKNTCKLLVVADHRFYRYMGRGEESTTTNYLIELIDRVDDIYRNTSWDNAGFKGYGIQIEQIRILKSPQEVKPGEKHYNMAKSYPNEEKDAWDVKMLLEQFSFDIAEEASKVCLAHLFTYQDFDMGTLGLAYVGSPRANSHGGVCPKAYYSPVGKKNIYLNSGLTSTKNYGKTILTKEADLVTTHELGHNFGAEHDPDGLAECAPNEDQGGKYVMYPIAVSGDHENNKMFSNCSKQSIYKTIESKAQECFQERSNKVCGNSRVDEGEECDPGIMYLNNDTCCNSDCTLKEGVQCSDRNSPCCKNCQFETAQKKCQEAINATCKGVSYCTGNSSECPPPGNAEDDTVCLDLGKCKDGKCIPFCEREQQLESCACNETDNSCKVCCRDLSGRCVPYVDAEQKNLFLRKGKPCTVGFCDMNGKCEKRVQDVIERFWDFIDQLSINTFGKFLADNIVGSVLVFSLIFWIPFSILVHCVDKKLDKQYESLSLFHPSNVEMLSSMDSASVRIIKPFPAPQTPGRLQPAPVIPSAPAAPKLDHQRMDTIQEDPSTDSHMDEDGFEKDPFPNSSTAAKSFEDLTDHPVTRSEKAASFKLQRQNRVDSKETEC
Briefly: TACE/ADAM17 fluorogenic peptide assay. The format is biochemical. Particulars: Mca-PLAQAV-Dpa-RSSSR-NH2 fluorogenic peptide, tested up to an inhibitor concentration of 50 µM. How it is done: as §1, with “Active human neutrophil elastase (NE) was purchased from Abcam (Cambridge, UK) and for activity assays of NE the assay buffer was replaced by 200 mM Tris, pH 8.8.” left out, “Endotoxin levels in all concentrated stocks (2.5 mg/mL) were below the accepted limit of 0.5 EU/mL.” left out
(§2) To determine the inhibition of gelatinolytic activity, we used a previously optimized gelatin degradation assay. […] Next, dye-quenched gelatin (DQ™-gelatin, Invitrogen, Carlsbad, CA, USA) was added at a final concentration of 2.5 µg/mL and the increase in fluorescence over time was measured with the CLARIOstar microplate reader (BMG Labtech, Ortenberg, Germany). […] Proteolytic activity was determined by linear regression of the fluorescence curve and the percentage inhibition was calculated through comparison with the positive control (no inhibitors). […]

Data set [2] has as its target T3, MMP-8/neutrophil collagenase (Homo sapiens, UniProt P22894).
T3 construct: purchased R & D systems; host or cells: NS0 cells
Briefly: MMP-8 OmniMMP peptide assay. The following applies: for IC50: OmniMMP substrate peptide. The format is biochemical. How it is done:
Compounds 5 and 7 were synthesized as previously reported. Full-length human proMMP-9 was produced by recombinant expression in Sf9 insect cells and purified by gelatin-Sepharose chromatography as previously described. Stable full-length proMMP-9 monomers and trimers were separated by glycerol gradient ultracentrifugation as previously described. ProMMP-9 mixture and the separated monomers and trimers were activated by incubation with the catalytic domain of MMP-3 (cat. No. 444217, Merck Millipore, Darmstadt, Germany) as previously described. Activation of proMMP-9 was confirmed by a band shift of ±10 kDa, corresponding to the removal of the auto-inhibitory propeptide domain and by detection of gelatinolytic activity with a previously described gelatin degradation assay. MMP-9 monomers and trimers purified from human neutrophils were purchased (Cat. No. 444,231 and 444232, Sigma-Aldrich, St. Louis, MO, USA). Examples of sample purities and activations can be found in Supplementary Figure S1. […] ADAM17/TACE (Sf 21 (baculovirus)-derived, R & D systems, Minneapolis, MO, USA) was diluted and evaluated in 25 mM Tris, 2.5 μM ZnCl2, 0.005% Brij-35, pH 9.0. All stocks of the compounds were evaluated for the presence of endotoxin using the EndoZyme II assay (Hyglos bioMérieux, Bernried am Starnberger See, Germany). […]
as §2

Another data set concerns U-87 cell line. Briefly: U-87 cell viability (LIVE/DEAD). Type of data set: cell-based. The following applies: up to a concentration of 20 µM; 17 h. The procedure: (§3) Toxicity of compounds 5 and 7 was evaluated in vitro on the U-87 cell line. Briefly, U-87 cells were seeded in 96-well plates (cat. No. 92096, TPP Techno Plastic Products, Trasadingen, Switzerland) at 2000 cells/well in DMEM FluoroBrite containing 10% FBS and incubated for 24 h. Cells were washed and further grown in DMEM FluoroBrite with 5% KnockOut™ Serum Replacement (Gibco, Waltham, MA, USA). Compounds 5 and 7 were added to the wells in a 1:2 dilution series starting at 20 µM and ending at 0.16 µM. To evaluate the effect of the compound on cell growth, confluence was determined every hour for 17h using the Incucyte® S3 Live-Cell Analysis System (Sartorius, Göttingen, Germany). Next, cells were stained with the LIVE/DEAD™ Viability/Cytotoxicity Kit for mammalian cells (Invitrogen, Carlsbad, CA, USA; cat. # L3224) and cell viability was evaluated. Data were normalized to the mean confluence of wells containing no inhibitors. To measure the stability of the compounds, fresh blood was collected from heathy mice by cardiac puncture with a heparin-coated needle and syringe and 30UI/mL heparin was added. Next, compound 5, compound 7 or vehicle (DMSO) was added to the blood at a final concentration of 500 µM and incubated at 37 °C. […] Background inhibition was subtracted and results were expressed as percentage inhibition.

Data set [3] can be described thus: Ex vivo stability in mouse blood (remaining MMP-9 inhibitory activity). Type of data set: in vitro ADME. Particulars: 500 µM in freshly isolated mouse blood, 37 °C; plasma and cell lysates. The procedure:
as §3

Setting [4] is: recombinant human MMP-9 (Sf9) tri, gelatin degradation.

T1 sequence (P14780 107-707 limits assumed): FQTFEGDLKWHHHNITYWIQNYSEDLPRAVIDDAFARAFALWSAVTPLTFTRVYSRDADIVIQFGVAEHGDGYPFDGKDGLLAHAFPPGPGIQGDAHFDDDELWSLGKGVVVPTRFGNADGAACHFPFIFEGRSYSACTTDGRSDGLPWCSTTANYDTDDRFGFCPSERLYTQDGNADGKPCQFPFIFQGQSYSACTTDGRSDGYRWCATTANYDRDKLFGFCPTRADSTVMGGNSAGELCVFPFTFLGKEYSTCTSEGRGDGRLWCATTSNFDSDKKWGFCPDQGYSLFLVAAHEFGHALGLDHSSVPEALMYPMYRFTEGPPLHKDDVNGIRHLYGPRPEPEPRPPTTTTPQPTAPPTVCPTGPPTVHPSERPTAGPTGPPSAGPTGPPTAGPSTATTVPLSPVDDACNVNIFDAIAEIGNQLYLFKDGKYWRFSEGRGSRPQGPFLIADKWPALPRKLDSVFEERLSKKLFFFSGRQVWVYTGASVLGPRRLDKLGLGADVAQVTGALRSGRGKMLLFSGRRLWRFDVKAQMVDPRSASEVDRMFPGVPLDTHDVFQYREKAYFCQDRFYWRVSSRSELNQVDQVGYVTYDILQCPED
T3 sequence (P22894 101-467): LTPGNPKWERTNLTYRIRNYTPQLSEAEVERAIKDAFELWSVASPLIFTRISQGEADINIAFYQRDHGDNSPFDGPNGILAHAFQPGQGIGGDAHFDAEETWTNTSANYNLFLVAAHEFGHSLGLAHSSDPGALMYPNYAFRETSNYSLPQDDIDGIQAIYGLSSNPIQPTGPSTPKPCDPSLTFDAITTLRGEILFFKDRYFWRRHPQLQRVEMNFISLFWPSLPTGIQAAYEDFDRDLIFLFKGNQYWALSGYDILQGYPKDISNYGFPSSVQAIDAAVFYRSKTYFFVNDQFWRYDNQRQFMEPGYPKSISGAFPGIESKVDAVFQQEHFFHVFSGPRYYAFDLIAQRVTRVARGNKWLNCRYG

`CC(C)[C@H](C(=O)O)N(CCNC(=O)c1ccccc1)S(=O)(=O)c1ccc(-c2ccccc2)cc1` [Compound 5]: the IC25 (as a rule, the concentration needed for an effect of 25%) in data set [1] (setting [4]) was found to be 526 nM. Moreover, the IC50 (commonly the midpoint of a concentration-inhibition curve) in data set [1] (setting [4]) is 2250 nM; at TACE/ADAM17 it was “no inhibition ^†”; against TACE/ADAM17 (listed as compound 5) it was “not inhibited”; in data set [2], 331 nM. Besides, the IC75 (in general, the concentration needed for an effect of 75%) in data set [1] (setting [4]) was determined as 9.66 µM. For the same compound, the “cellular toxicity (cell viability of U-87 cells)” value with U-87 cell line is on record as “nor did they induce cellular toxicity”. Moreover, the “ex vivo stability: remaining MMP-9 inhibitory activity” value in data set [3] is “remained detectable up to 24h later”.

In the case of `CC(C)[C@H](C(=O)O)N(CCNC(=O)c1cccc(C(=O)NCCN([C@@H](C(=O)O)C(C)C)S(=O)(=O)c2ccc(-c3ccccc3)cc2)c1)S(=O)(=O)c1ccc(-c2ccccc2)cc1` [Compound 7], the IC50 in data set [1] (setting [4]) was 0.18 nM; at TACE/ADAM17, “no inhibition ^†”; against TACE/ADAM17 (listed as compound 7) it was “not inhibited”; in data set [2], 14.5 nM. Further, the IC75 in data set [1] (setting [4]) came to 0.018 µM. In data set [1] (recombinant human MMP-9, gelatin substrate), the “fold more potent at inhibiting gelatinolysis by trimeric versus monomeric MMP-9” value is given as “over 1000 fold”. In data set [2] (peptide substrate), the “fold less inhibition of MMP-8 than of trimeric MMP-9” value is “more than 100 fold”. Also, the “cellular toxicity (cell viability of U-87 cells)” value with U-87 cell line is recorded as “nor did they induce cellular toxicity”. The “ex vivo stability: remaining MMP-9 inhibitory activity” value in data set [3] is on record as “remained detectable up to 24h later”.
